Results from patent publication US10925913B2, “Low toxic tripterygium neoglycosides, preparation method and application thereof” (priority 2017, dated 2021).
“Also recorded” adds a separate entry of the source.

How the values were obtained:
[1] = test system: normal T and B lymphocytes; assay: Immunosuppressive activity: inhibition of normal T/B lymphocyte increment (MTT); type: cell-based, rat; conditions: FIG. 4
Description: The rats were sacrificed by neck amputation and soaked in 75% ethanol. The spleens of the rats were taken out in an ultra-clean bench, washed in DPBS for 3 times, fully moistened, 200 mesh gauze was placed on a dish (35 mm diameter), it is evenly ground in one direction by a piston of a 10 mL syringe, the spleen was moistened with DPBS while grinding. The collected lymphocyte suspension was centrifuged at 1500 rpm for 3 min, and 7 mL of erythrocyte lysate was added to each spleen suspension. After acting at room temperature for 30 min, the cells were centrifuged at 1500 rpm for 3 min. After discarding supernatant, the cells were washed with DPBS for 3 times to remove excess serum, added with […] of 70% Percoll to the bottom layer of 15 mL centrifuge tube and […] of 40% Percoll to the upper layer of 15 mL centrifuge tube, then centrifuged 800 g at room temperature for 20 min on a horizontal centrifuge.

[2] = test system: induced T/B lymphocyte; assay: Specific inhibition experiment: Con A- or LPS-induced T/B lymphocyte increment (MTT); type: cell-based, rat; conditions: FIG. 5
Description: The pretreatment of lymphocytes in the specific inhibition experiment is the same as above. After lymphocytes inoculated into 96-well culture plates, drug was added. 200 μL of drug was added each to blank control group (culture medium only), T lymphocyte specific increment inducer Con A model group (5 μg/mL, corresponding model group) and B lymphocyte specific increment inducer LPS model group (5 μg/mL, corresponding model group). Con A administration group was firstly added multiple doses of T lymphocyte specific increment inducer Con A 100 μL ([…], corresponding model group) separately, and then added 100 μL of triptriolide (100, 200, 300, 400 μg/mL) with different concentrations separately. In LPS administration group, multiple doses of B lymphocyte specific increment inducer LPS 100 μL ([…], corresponding model group) were added respectively, and 100 μL of triptriolide (100, 200, 300, 400 μg/mL) with different concentrations were added respectively.

[3] = test system: Raw264.7 cells; assay: Anti-inflammatory activity in LPS-induced Raw264.7 cell inflammation model; type: cell-based, rat
Description: Raw264.7 37° C., 5% CO2 RPMI-1640+10% FBS+1% Pen Strep. Finally, the cell was cultured in an incubator until 80% of the cells adhere to the wall. The cells in logarithmic growth phase were taken and adjusted to the appropriate cell density in a 96-well plate after digestion with 0.25% trypsin. After adhering to the wall in monolayer, the cell was cultured in a synchronized medium for 12 hours. After entering the quiescent period, except for the blank control group, 1 mL of LPS (1 μg/mL) was used as a modeling agent in other groups to induce the cell inflammation model in the cell in each group. Meanwhile, drug treatment is carried out: 1 mL of culture medium was added to the model group, 1 mL of liquid drug with corresponding concentration was added to the drug administration group (triptolide 50, 100, 150, 200 μg/mL dose group), and 2 ml of culture medium was directly added to the blank control group. Western blot, qPCR, ELISA and other methods were used to detect the expression levels of inflammation-related proteins, genes, cytokines, the expressions of NF-κB transcription-related factors, and the expressions of IL-6, IL-10, TNF-α and other inflammatory cytokines in different treatment groups.

[4] = test system: podocyte cell line MPCS; assay: Protection of podocytes from ADM-induced apoptosis; type: cell-based, rat
Description: Rat immortalized podocyte cell line MPCS is presented by nephrology department of Guangdong provincial hospital of Traditional Chinese Medicine. The treatment methods of […] are presented as follows: Western blot, IFC, qPCR, ELISA and other methods are used to detect the expression levels of inflammation-related proteins, genes and cytokines in different treatment groups. The podocyte cell is temperature sensitive cell, increases at 33° C. RPMI-1640+10% FBS+1% Pen Strep+10 U/mL γ-IFN, and differentiates at 37° C. RPMI-1640+10% FBS+1% Pen Strep medium for 10-14 days. […] The expression of podocaine membrane protein podocine and apoptosis-related gene Bax were detected by flow cytometry using FITC-labeled Annexin V and Propidium iodide (PI) to differentiate early apoptotic cells from late apoptotic cells and dead cells.

[5] = test system: rat with ear swelling model; conditions: Zheng Jiarun, et al., 1991; cited from earlier work

CC(C)[C@]1(O)[C@H](O)[C@@H]2O[C@]23[C@]2(O[C@H]2C[C@H]2C4=C(CC[C@@]23C)C(=O)OC4)[C@@H]1O [triptriolide]
inhibiting increment of normal T and B lymphocytes in vitro ([1]; 50, 100, 150, 200 μg/mL, 24 h, MTT): dose-dependent | cell activity of normal T and B lymphocytes ([1]; each administration group, p<0.05): significantly lower than that of the control group and model group | immunosuppressive effect ([2]; Con A-induced T vs LPS-induced B lymphocytes): lower immunosuppressive effect; also recorded: on T lymphocytes is significantly higher than that on B lymphocytes | cell activity of Con A- / LPS-induced lymphocytes ([2]; different concentrations, 24 h, MTT): higher than that of the blank control group, but lower than that of the model group | effects of inflammatory factors TNF-α and IL-10 ([3]; FIGS. 7 and 8): effectively reduce | cytokine secretion in LPS-induced inflammatory injury model ([3]; LPS 1 μg/mL, FIG. 6): can improve cytokine secretion | expression of IL-10 ([3]; at high concentration): can be increased | apoptosis of podocytes ([4]; 0.8 μg/mL ADM apoptosis model, FIGS. 9 to 11): attenuated | apoptosis of podocytes at high concentration ([4]; 0.8 μg/mL ADM, high concentration): upward trend | anti-inflammatory activity [5]: weak anti-inflammatory activity | immunosuppressive activity [5]: no immunosuppressive activity
